Where a name gives a salt, the structure may show the parent alone. Read-outs that look alike come from different tables or passages of the source.
Columns and labels:
CRBN/DDB1 = CRBN/DDB1 (Homo sapiens (Human), UniProt Q96SW2); type: binding
Experimental: The binding potency was determined using H-TRF assay technology (Perkin Elmer). Compounds were serially diluted in DMSO and 0.2 μL volume was transferred to white 384-well plate.

ER in MCF-7 cells = ER in MCF-7 cells (Homo sapiens (Human), UniProt P03372); assay: In-cell western (ICW) ER degradation assay in MCF-7 cells (Compounds A1-A70); type: cell-based; conditions: for DC50: ER degradation, 0.02 to 300 nM, read-out: MCF7 ICW DC50
Sequence of ER in MCF-7 cells (P03372 whole entry): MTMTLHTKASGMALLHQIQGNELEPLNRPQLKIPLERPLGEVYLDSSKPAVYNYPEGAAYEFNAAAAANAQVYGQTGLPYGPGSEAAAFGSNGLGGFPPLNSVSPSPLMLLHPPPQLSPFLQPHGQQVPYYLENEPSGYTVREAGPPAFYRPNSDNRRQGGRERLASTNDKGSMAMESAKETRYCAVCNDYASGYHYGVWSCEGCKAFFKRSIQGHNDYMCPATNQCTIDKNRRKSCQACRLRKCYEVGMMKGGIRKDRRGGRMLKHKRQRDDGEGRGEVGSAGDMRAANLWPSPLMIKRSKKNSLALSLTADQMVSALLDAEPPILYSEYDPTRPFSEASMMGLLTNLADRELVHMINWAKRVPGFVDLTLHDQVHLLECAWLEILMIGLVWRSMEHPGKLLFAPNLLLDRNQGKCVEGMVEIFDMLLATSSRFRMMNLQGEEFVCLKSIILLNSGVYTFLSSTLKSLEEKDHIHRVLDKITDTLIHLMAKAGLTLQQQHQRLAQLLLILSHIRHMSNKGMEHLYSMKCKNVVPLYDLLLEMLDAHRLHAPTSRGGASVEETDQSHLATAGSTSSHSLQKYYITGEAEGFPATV

ER in T47D cells = ER in T47D cells (Homo sapiens (Human), UniProt P03372); assay: In-cell western (ICW) ER degradation assay in T47D cells (Compounds A1-A70); type: cell-based; conditions: for DC50: ER degradation, 0.02 to 300 nM; for Dmax: T47D, read-out: T47D ICW Dmax (%)
Sequence of ER in T47D cells (P03372 whole entry): as above

[1] = His tagged CRBN+DDB-DLS7+CXU4, Cy5-labeled Thalidomide probe, one hour incubation, read-out: CRBN HTRF IC50
[2] = MCF7, maximal ER degradation, MCF-7 cells, 16 hrs treatment, read-out: MCF7 ICW Dmax (%)
[3] = maximal ER degradation, T47D cells, 16 hrs treatment
[4] = MCF7, read-out: MCF7 ICW Dmax (%)

Structure (SMILES) | IC50 (CRBN/DDB1; [1]) [nM] | DC50 (ER in MCF-7 cells; MCF-7 cells, 16 hrs treatment) [nM] | Dmax (ER in MCF-7 cells; [2]) [%] | DC50 (ER in T47D cells; T47D cells, 16 hrs treatment) [nM] | Dmax (ER in T47D cells; [3]) [%] | IC50 (CRBN/DDB1) [nM] | Dmax (ER in MCF-7 cells; [4]) [%] | Dmax (ER in T47D cells) [%]
COc1cc(N2CCC(CN3CCN(c4ccc(C(=O)N[C@H]5CCC(=O)NC5=O)nc4)CC3)CC2)ccc1[C@@H]1c2[nH]c3ccccc3c2C[C@@H](C)N1CC(F)F [Compound A43, 5-(4-((1-(4-((1R,3R)-2-(2,2-difluoroethyl)-3-methyl-2,3,4,9-tetrahydro-1H-pyrido[3,4-b]indol-1-yl)-3-methoxyphenyl)piperidin-4-yl)methyl)piperazin-1-yl)-N—((S)-2,6-dioxopiperidin-3-yl)picolinamide formate] | 500 to 5000 | < 1 | 50 to 75 | < 1 | 50 to 75 |  |  | 
COc1cc(N2CCC(CN3CCN4c5cc6c(cc5OC[C@@H]4C3)C(=O)N([C@@H]3CCC(=O)NC3=O)C6)CC2)ccc1[C@H]1c2[nH]c3ccccc3c2C[C@H](C)N1CC(F)F [Compound A44, (R)-3-((S)-3-((1-(4-((1S,3S)-2-(2,2-difluoroethyl)-3-methyl-2,3,4,9-tetrahydro-1H-pyrido[3,4-b]indol-1-yl)-3-methoxyphenyl)piperidin-4-yl)methyl)-8-oxo-1,2,3,4,4a,5,8,10-octahydro-9H-pyrazino[1′,2′:4,5][1,4]oxazino[2,3-f]isoindol-9-yl)piperidine-2,6-dione] | 50 to 500 | < 1 | 50 to 75 | < 1 | 50 to 75 |  |  | 
COc1cc(N2CCC3(CCN(C(=O)CN4Cc5cnc(C(=O)N[C@H]6CCC(=O)NC6=O)cc5C4)CC3)CC2)ccc1[C@@H]1c2[nH]c3ccccc3c2C[C@@H](C)N1CC(F)F [Compound A50, 2-(2-(9-(4-((1R,3R)-2-(2,2-difluoroethyl)-3-methyl-2,3,4,9-tetrahydro-1H-pyrido[3,4-b]indol-1-yl)-3-methoxyphenyl)-3,9-diazaspiro[5.5]undecan-3-yl)-2-oxoethyl)-N—((S)-2,6-dioxopiperidin-3-yl)-2,3-dihydro-1H-pyrrolo[3,4-c]pyridine-6-carboxamide formate] |  |  |  |  |  | 500 to 5000 | 50 to 75 | 50 to 75
COc1cc(N2CCC(CN3CCN4c5ccc(C(=O)NC6CCC(=O)NC6=O)nc5OC[C@H]4C3)CC2)ccc1[C@@H]1c2[nH]c3ccccc3c2C[C@@H](C)N1CC(F)F (stereo partly drawn) [Compound A51, (4aR)-3-((1-(4-((1R,3R)-2-(2,2-difluoroethyl)-3-methyl-2,3,4,9-tetrahydro-1H-pyrido[3,4-b]indol-1-yl)-3-methoxyphenyl)piperidin-4-yl)methyl)-N-(2,6-dioxopiperidin-3-yl)-1,2,3,4,4a,5-hexahydropyrazino[1,2-d]pyrido[2,3-b][1,4]oxazine-8-carboxamide formate] | 500 to 5000 | < 1 |  | < 1 | > 75 |  | > 75 | 
COc1cc(N2CCC(CN3CCN(c4ccc(C(=O)NC5CCC(=O)NC5=O)nc4OC)CC3)CC2)ccc1[C@@H]1c2[nH]c3ccccc3c2C[C@@H](C)N1CC(F)F (stereo partly drawn) [Compound A52, 5-(4-((1-(4-((1R,3R)-2-(2,2-difluoroethyl)-3-methyl-2,3,4,9-tetrahydro-1H-pyrido[3,4-b]indol-1-yl)-3-methoxyphenyl)piperidin-4-yl)methyl)piperazin-1-yl)-N-(2,6-dioxopiperidin-3-yl)-6-methoxypicolinamide] | > 5000 | < 1 | 25 to 50 | 1 to 10 | 25 to 50 |  |  | 
COc1cc(N2CCC(CN3CCC(c4ccc(C(=O)NC5CCC(=O)NC5=O)nc4)CC3)CC2)ccc1[C@@H]1c2[nH]c3ccccc3c2C[C@@H](C)N1CC(F)F (stereo partly drawn) [Compound A53, 5-(1-((1-(4-((1R,3R)-2-(2,2-difluoroethyl)-3-methyl-2,3,4,9-tetrahydro-1H-pyrido[3,4-b]indol-1-yl)-3-methoxyphenyl)piperidin-4-yl)methyl)piperidin-4-yl)-N-(2,6-dioxopiperidin-3-yl)picolinamide] | 500 to 5000 | < 1 | 25 to 50 | > 100 | < 25 |  |  | 
COc1cc(N2CCC(CN3CCN4c5ccc(C(=O)NC6CCC(=O)NC6=O)nc5OC[C@H]4C3)CC2)ccc1[C@H]1c2[nH]c3ccccc3c2C[C@H](C)N1CC(F)F (stereo partly drawn) [Compound A54, (4aR)-3-((1-(4-((1S,3S)-2-(2,2-difluoroethyl)-3-methyl-2,3,4,9-tetrahydro-1H-pyrido[3,4-b]indol-1-yl)-3-methoxyphenyl)piperidin-4-yl)methyl)-N-(2,6-dioxopiperidin-3-yl)-1,2,3,4,4a,5-hexahydropyrazino[1,2-d]pyrido[2,3-b][1,4]oxazine-8-carboxamide] | 500 to 5000 | < 1 | 50 to 75 | < 1 | 50 to 75 |  |  | 
COc1cc(N2CCC(CN3CCN(c4ccc(C(=O)N[C@@H]5CCC(=O)NC5=O)nc4)CC3)CC2)ccc1[C@@H]1c2[nH]c3ccccc3c2C[C@@H](C)N1CC(F)F [Compound A57, 5-(4-((1-(4-((1R,3R)-2-(2,2-difluoroethyl)-3-methyl-2,3,4,9-tetrahydro-1H-pyrido[3,4-b]indol-1-yl)-3-methoxyphenyl)piperidin-4-yl)methyl)piperazin-1-yl)-N-((R)-2,6-dioxopiperidin-3-yl)picolinamide formate] | < 50 | < 1 | 50 to 75 | < 1 | 25 to 50 |  |  | 
C[C@H]1Cc2c([nH]c3ccccc23)[C@H](c2cnc(N3CCC4(CC3)C[C@H](CN3CCN5c6ccc7c(c6OC[C@@H]5C3)CN([C@@H]3CCC(=O)NC3=O)C7=O)CO4)nc2)N1CC(F)F [Compound A58, (R)-3-((S)-7-(((R)-8-(5-((1S,3S)-2-(2,2-difluoroethyl)-3-methyl-2,3,4,9-tetrahydro-1H-pyrido[3,4-b]indol-1-yl)pyrimidin-2-yl)-1-oxa-8-azaspiro[4.5]decan-3-yl)methyl)-1-oxo-1,3,5,5a,6,7,8,9-octahydro-2H-pyrazino[1′,2′:4,5][1,4]oxazino[2,3-e]isoindol-2-yl)piperidine-2,6-dione] | 50 to 500 | < 1 | 50 to 75 | < 1 | 50 to 75 |  |  | 
C[C@H]1Cc2c([nH]c3ccccc23)[C@H](c2cnc(N3CCC4(CC3)C[C@H](CN3CCN5c6cc7c(cc6OC[C@H]5C3)C(=O)N([C@@H]3CCC(=O)NC3=O)C7)CO4)nc2)N1CC(F)F [Compound A60, (R)-3-((R)-3-(((R)-8-(5-((1S,3S)-2-(2,2-difluoroethyl)-3-methyl-2,3,4,9-tetrahydro-1H-pyrido[3,4-b]indol-1-yl)pyrimidin-2-yl)-1-oxa-8-azaspiro[4.5]decan-3-yl)methyl)-8-oxo-1,2,3,4,4a,5,8,10-octahydro-9H-pyrazino[1′,2′:4,5][1,4]oxazino[2,3-f]isoindol-9-yl)piperidine-2,6-dione] | 500 to 5000 | < 1 | 50 to 75 | < 1 | 50 to 75 |  |  | 

Source: patent US20260007681A1, “INDOLE DERIVATIVES AS ESTROGEN RECEPTOR DEGRADERS” (REGENTS OF THE UNIVERSITY OF MICHIGAN, priority 2022, published 2026)
